{"source": "patent US20060121040A1", "about": "“Compositions and methods for treating neuroendocrine tumors” (Wisconsin Alumni Research Foundation, priority 2004, published 2006)", "key": {"[1]": {"tested_on": "chromogranin A (CgA)", "experiment": "NE marker chromogranin A in medullary thyroid cancer TT cells", "assay_type": "cell-based, human", "details": "SB216763 0-50 μM"}, "[2]": {"tested_on": "human achaete-scute homolog-1 (hASH1)", "experiment": "NE marker hASH1 in medullary thyroid cancer TT cells", "assay_type": "cell-based", "details": "SB216763 0-50 μM"}, "[3]": {"tested_on": "medullary thyroid cancer TT cells", "experiment": "Cellular growth of medullary thyroid cancer cells", "assay_type": "cell-based, human"}, "[4]": {"biological_target": "T1, GSK3B (Homo sapiens, UniProt P49841)", "T1 construct": "treatment of NE tumor cells with ZM336372 (0-50 μM); endogenous in cells; host or cells: BON and TT cells", "T1 sequence (P49841 whole entry)": "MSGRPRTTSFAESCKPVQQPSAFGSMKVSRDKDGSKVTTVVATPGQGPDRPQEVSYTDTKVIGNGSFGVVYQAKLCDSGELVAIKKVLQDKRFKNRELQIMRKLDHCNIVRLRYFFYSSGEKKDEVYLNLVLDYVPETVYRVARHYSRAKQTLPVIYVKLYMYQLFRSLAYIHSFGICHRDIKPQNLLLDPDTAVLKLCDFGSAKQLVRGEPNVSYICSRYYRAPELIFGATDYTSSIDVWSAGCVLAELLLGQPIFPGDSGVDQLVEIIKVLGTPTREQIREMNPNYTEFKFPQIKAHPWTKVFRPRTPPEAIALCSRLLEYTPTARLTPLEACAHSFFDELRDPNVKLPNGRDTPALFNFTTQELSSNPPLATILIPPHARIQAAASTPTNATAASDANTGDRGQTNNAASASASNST", "experiment": "Phosphorylated GSK3B in NE tumor cells (BON and TT) treated with ZM336372 (FIG. 7)", "assay_type": "cell-based", "details": "ZM336372 0-50 μM"}, "[5]": {"tested_on": "ERK1/2", "experiment": "Phosphorylated ERK1/2 in NE tumor cells (BON and TT) treated with ZM336372 (FIG. 7)", "assay_type": "cell-based, human", "details": "ZM336372 0-50 μM"}, "[6]": {"tested_on": "Raf-1/MEK/ERK system", "experiment": "Western analysis for Raf-1 pathway activation in H727 cells", "assay_type": "cell-based, human", "method": "(§1) H727 and BON cells were plated at 50% to 60% confluence in 100-mm cell culture dishes and incubated overnight. Cells were treated with ZM336372 (BioMol, Plymouth Meeting, Pa.) in different concentrations for up to 6 days. Of note, treatments were done in serum-containing medium. Furthermore, the DMSO concentration never exceeded 2% in all treatment groups. ZM336372 at 500 μmol/L concentrations were used only in the toxicity experiments. Stock ZM336372 was made at higher concentration to reduce DMSO toxicity."}, "[7]": {"tested_on": "Raf-1/MEK/ERK system", "experiment": "Western analysis for Raf-1 pathway activation in BON cells", "assay_type": "cell-based, human", "details": "increasing doses (20 and 100 μmol/L), 2 d", "method": "as §1"}, "[8]": {"tested_on": "chromogranin A", "experiment": "Western analysis of chromogranin A in H727 cells", "assay_type": "cell-based, human", "method": "as §1\n(§2) Changes in chromogranin A levels are known to be concordant with alterations in other neuroendocrine hormones such as histamine and serotonin (Sippel & Chen, Surgery 2002;132:1035-9). Additionally, hASH1 is expressed in most neuroendocrine tumors and correlates with neuroendocrine hormone levels as previously described. Therefore, to determine if ZM336372 can reduce chromogranin A and hASH1, pulmonary H727 and gastrointestinal BON carcinoid cells were treated with ZM336372. […] Furthermore, to determine when chromogranin A depletion occurs, H727 cells were treated with ZM336372 at different time intervals."}, "[9]": {"tested_on": "hASH1", "experiment": "Western analysis of hASH1 in H727 cells", "assay_type": "cell-based, human", "method": "as §1, §2"}, "[10]": {"tested_on": "chromogranin A", "experiment": "Western analysis of chromogranin A in BON cells", "assay_type": "cell-based, human", "details": "20 and 100 μmol/L, 2 d", "method": "as §1, §2"}, "[11]": {"tested_on": "hASH1", "experiment": "Western analysis of hASH1 in BON cells", "assay_type": "cell-based, human", "details": "20 and 100 μmol/L, 2 d", "method": "as §1, §2"}, "[12]": {"tested_on": "H727 cells", "experiment": "Cell proliferation assay (MTT) in H727 cells", "assay_type": "cell-based, human", "details": "100 μmol/L vs DMSO, up to 16 days, serum-containing medium", "method": "(§3) Cells were trypsinized and plated in triplicate to 24-well plates and allowed to adhere overnight. […] Media were changed every 2 days with new treatment. […] Absorbance was determined using spectrophotometer at a wavelength of 540 nm."}, "[13]": {"tested_on": "BON cells", "experiment": "Cell proliferation assay (MTT) in BON cells", "assay_type": "cell-based, human", "details": "100 μmol/L vs DMSO, day 4 to day 10", "method": "as §3"}, "[14]": {"tested_on": "p21", "experiment": "Western analysis of cell cycle inhibitor p21 in H727 cells", "assay_type": "cell-based, human", "details": "20 and 100 μmol/L, 2 days", "procedure": "(§5) Cellular extracts were prepared and quantified by bicinchoninic acid protein assay kit (Pierce, Rockford, Ill.) as previously described (Sippel & Chen, Surgery 2002;132:1035-9). Denatured proteins (30-50 μg) from each sample underwent electrophoresis on a SDS polyacrylamide gel and transferred to a nitrocellulose membranes (Schleicher and Schuell, Keene, N.H.). Membranes were blocked for 1 hour in milk solution (1×PBS, 5% nonfat dry milk, 0.05% Tween 20) and incubated at 4° C. overnight with primary antibodies. The following primary antibody dilutions were used: phospho-ERK1/2 (1:1,000), phospho-MEK (1:1,000), phospho-Raf-1 (Ser338; 1:1,000), p21 and p18, (1:1,000) (Cell Signaling Technology, Beverly, Mass.), Chromogranin A (1:2,000; Zymed Laboratories, San Francisco, Calif.), MASH-1 (1:1000, BD Pharmingen, San Diego, Calif.), and G3PDH (1:10,000; Trevigen, Gaithersburg, Md.). After primary antibody incubation, membranes were washed 3×5 minutes in PBS-T wash buffer (1×PBS and 0.05% Tween 20). Then the membranes were incubated with either 1:2,000 dilution of goat anti-rabbit or goat anti-mouse secondary antibody (Cell Signaling Technology) depending on the source of the primary antibody for 1 hour at room temperature. […]"}, "[15]": {"tested_on": "H727 cells", "experiment": "Drug toxicity assay, propidium iodide exclusion, H727 cells", "assay_type": "cell-based, human", "method": "Briefly, cells were trypsinized and plated in a 6-well plate at 1 to 2×10^6 in triplicate and allowed to adhere overnight. […] As a control, DMSO was added. After incubation, the medium was removed and cells were trypsinized and added to removed medium. Cells were incubated on ice and 2.5 Ag/mL propidium iodide (Sigma) was added 5 minutes before flow cytometry (17). Data was acquired using a FACSCalibur bench top flow cytometer (Becton Dickinson, San Jose, Calif.) using CellQuest acquisition and analysis software."}, "[16]": {"tested_on": "BON cells", "experiment": "Drug toxicity assay, propidium iodide exclusion, BON cells", "assay_type": "cell-based, human", "details": "63 to 500 μmol/L, 2 days", "method": "Briefly, cells were trypsinized and plated in a 6-well plate at 1 to 2×10^6 in triplicate and allowed to adhere overnight. Then the media was replaced with fresh media containing various concentrations (31.25, 62.5, 125, 250, and 500 μmol/L) of ZM336372 and incubated for up to 3 days. As a control, DMSO was added. After incubation, the medium was removed and cells were trypsinized and added to removed medium. Cells were incubated on ice and 2.5 Ag/mL propidium iodide (Sigma) was added 5 minutes before flow cytometry (17). Data was acquired using a FACSCalibur bench top flow cytometer (Becton Dickinson, San Jose, Calif.) using CellQuest acquisition and analysis software."}, "[17]": {"tested_on": "H727 cells", "experiment": "Cytotoxicity assay (Cell Titer Glo), H727 cells", "assay_type": "cell-based, human", "details": "ZM336372 tested 0 to 200 μmol/L", "method": "(§4) Cells (H727 and BON) were harvested by trypsinization and plated at a cell density of 3,000 cells per well of each microtiter plate. Cells were grown for 4 hours at 37° C. to allow cell attachment to occur before compound addition. Doxorubicin (control) and ZM336372 were dissolved in DMSO. […] Treatments were done in duplicate. Cells were incubated with the test compounds for 72 hours before reading the assay. Then processing and calculation were done according to manufacturer's directions for Cell Titer Glo Assay (Promega, Madison, Wis.)."}, "[18]": {"tested_on": "BON cells", "experiment": "Cytotoxicity assay (Cell Titer Glo), BON cells", "assay_type": "cell-based, human", "details": "72 hours, ZM336372 tested 0 to 200 μmol/L", "method": "as §4"}, "[19]": {"tested_on": "p18", "experiment": "Western analysis of cell cycle inhibitor p18 in H727 cells", "details": "20 and 100 μmol/L, 2 days", "procedure": "as §5"}}, "note": "“Also recorded” adds a separate entry of the source. Where two headings read alike, the source gives them in different places."}
{"smiles": "Cn1cc(C2=C(c3ccc(Cl)cc3Cl)C(=O)NC2=O)c2ccccc21", "note": "[SB216763]", "values": [{"measurement": "chromogranin A production", "setting": "[1]", "result": "suppression; also recorded: reduction"}, {"measurement": "hASH1", "setting": "[2]", "result": "suppression; also recorded: reduction"}, {"measurement": "TT cell growth", "setting": "[3]; SB216763 0-50 μM", "result": "suppression"}]}
{"smiles": "Cc1ccc(NC(=O)c2cccc(N(C)C)c2)cc1NC(=O)c1ccc(O)cc1", "note": "[ZM336372]", "values": [{"measurement": "growth of other neuroendocrine tumor cell lines", "setting": "[3]; ZM336372, medullary thyroid cancer cells, data not shown", "result": "inhibited growth"}, {"measurement": "levels of phosphorylated GSK3B", "setting": "[4]", "result": "increased levels"}, {"measurement": "levels of phosphorylated ERK1/2", "setting": "[5]", "result": "increased levels"}, {"measurement": "MEK1/2 phosphorylation at days 4 and 6", "setting": "[6]; 100 μmol/L", "result": "sustained; also recorded: greater than controls out to 6 d"}, {"measurement": "Raf-1 phosphorylation at Ser338", "setting": "[6]; 20 and 100 μmol/L, 2 days", "result": "phosphorylated; also recorded: dose-dependent increases"}, {"measurement": "MEK1/2 and ERK1/2 phosphorylation", "setting": "[6]; 20 and 100 μmol/L, 2 days, vs DMSO", "result": "activation; also recorded: dose-dependent increases"}, {"measurement": "ERK1/2 and MEK1/2 phosphorylation", "setting": "[7]", "result": "strong activation; also recorded: dose-dependent increases"}, {"measurement": "time of greatest comparative loss of chromogranin A", "setting": "[8]; 100 μmol/L", "result": 48, "unit": "h"}, {"measurement": "lasting effect on chromogranin A (days 2, 4 and 6)", "setting": "[8]; 100 μmol/L vs DMSO", "result": "maintained to 6 days; also recorded: persistent reduction"}, {"measurement": "earliest detection of reduction of chromogranin A", "setting": "[8]; 100 μmol/L, 10 min, 1, 12, 24, 48 h", "result": 1, "unit": "h"}, {"measurement": "chromogranin A level", "setting": "[8]; 20 and 100 μmol/L, 2 d", "result": "reduction; also recorded: dose-dependent decrease"}, {"measurement": "first recognized reduction in hASH1", "setting": "[9]; 100 μmol/L", "result": 1, "unit": "h"}, {"measurement": "hASH1 level", "setting": "[9]; 20 and 100 μmol/L, 2 d", "result": "reduction; also recorded: dose-dependent decrease"}, {"measurement": "chromogranin A level", "setting": "[10]", "result": "reduction; also recorded: dose-dependent decrease"}, {"measurement": "hASH1 level", "setting": "[11]", "result": "reduction; also recorded: dose-dependent decrease"}, {"measurement": "cell proliferation", "setting": "[12]", "result": "growth suppressed; also recorded: inhibited"}, {"measurement": "cell proliferation", "setting": "[13]", "result": "growth suppression; also recorded: inhibited"}, {"measurement": "p21 expression", "setting": "[14]", "result": "induced; also recorded: significant induction"}, {"measurement": "cytolysis", "setting": "[15]; 20-100 μmol/L", "result": "< 20", "unit": "%"}, {"measurement": "viability", "setting": "[15]; H727, 20 to 100 μmol/L vs DMSO, 2 d", "result": "significant viability was maintained"}, {"measurement": "cells remaining viable", "setting": "[16]", "result": "~70", "unit": "%"}, {"measurement": "IC50", "setting": "[17]; 72 hours", "result": "did not produce enough cellular cytotoxicity to estimate an IC50"}, {"measurement": "IC50", "setting": "[18]", "result": "did not produce enough cellular cytotoxicity to estimate an IC50"}, {"measurement": "p18 expression", "setting": "[19]", "result": "induced; also recorded: significant induction"}]}
{"smiles": "COc1cccc2c1C(=O)c1c(O)c3c(c(O)c1C2=O)C[C@@](O)(C(=O)CO)C[C@@H]3O[C@H]1C[C@H](N)[C@H](O)[C@H](C)O1", "note": "[doxorubicin]", "values": [{"measurement": "IC50", "setting": "[17]; Homo sapiens, NCI-H727, 72 hours, read-out: IC50", "result": 1.1, "unit": "µM"}, {"measurement": "IC50", "setting": "[18]; Homo sapiens, read-out: IC50", "result": 1.4, "unit": "µM"}]}
